Measurements published in patent US10927111B2, “Inhibitors of RAF kinases” (Kinnate Biopharma Inc., priority 2019, dated 2021).
Like-named read-outs stand apart in the source and are kept apart here.

Molecular target: human RAF1 (Homo sapiens (Human), UniProt P04049)
Assay: Protein kinase assay (radiometric 33P-ATP, MEK1 (K97R) substrate)
Type: biochemical
Details: read-out: RAF-1 IC50
Procedure: Protein kinase assay: Assay platform was used to measure kinase/inhibitor interactions as described previously (Anastassiadis et al., 2011). In brief, for each reaction, kinase and substrate were mixed in a buffer containing 20 mM HEPES (pH 7.5), 10 mM MgCl2, 1 mM EGTA, 0.02% Brij35, 0.02 mg/mL BSA, 0.1 mM Na3VO4, 2 mM DTT, and 1% DMSO. All compounds were solubilized in DMSO. Compounds were then added to each reaction mixture via acoustic dispense using an ECHO 550 nanoliter dispenser. For human RAF1 testing, human MEK1 (K97R) was used as a substrate at a concentration of 3 micromolar, with a final ATP concentration of 10 micromolar. For human BRAF testing, human MEK1 (K97R) was used as a substrate at 1 micromolar concentration, with a final ATP concentration of 25 micromolar. […] After a 20-min incubation, ATP (Sigma-Aldrich, St. Louis, Mo. 63178) and [g33P] ATP (specific activity 10 microCi/microliter) purchased at PerkinElmer (Boston, Mass., 02118 Cat #BLU 003H250UC) were added at a final total concentration of 10 mM. Reactions were carried out at room temperature for 2 hr and spotted onto P81 ionexchange cellulose chromatography paper (Reaction Biology). Filter paper was washed in 0.75% phosphoric acid to remove unincorporated ATP. The percent remaining kinase activity relative to a vehicle-containing (DMSO) kinase reaction was calculated for each kinase/inhibitor pair. IC50 values were calculated using Prism 5 (GraphPad).

[1] = human MEK1 (K97R) substrate 3 micromolar, ATP 10 micromolar, 10-dose IC50 mode

Sequence of human RAF1 (P04049 whole entry): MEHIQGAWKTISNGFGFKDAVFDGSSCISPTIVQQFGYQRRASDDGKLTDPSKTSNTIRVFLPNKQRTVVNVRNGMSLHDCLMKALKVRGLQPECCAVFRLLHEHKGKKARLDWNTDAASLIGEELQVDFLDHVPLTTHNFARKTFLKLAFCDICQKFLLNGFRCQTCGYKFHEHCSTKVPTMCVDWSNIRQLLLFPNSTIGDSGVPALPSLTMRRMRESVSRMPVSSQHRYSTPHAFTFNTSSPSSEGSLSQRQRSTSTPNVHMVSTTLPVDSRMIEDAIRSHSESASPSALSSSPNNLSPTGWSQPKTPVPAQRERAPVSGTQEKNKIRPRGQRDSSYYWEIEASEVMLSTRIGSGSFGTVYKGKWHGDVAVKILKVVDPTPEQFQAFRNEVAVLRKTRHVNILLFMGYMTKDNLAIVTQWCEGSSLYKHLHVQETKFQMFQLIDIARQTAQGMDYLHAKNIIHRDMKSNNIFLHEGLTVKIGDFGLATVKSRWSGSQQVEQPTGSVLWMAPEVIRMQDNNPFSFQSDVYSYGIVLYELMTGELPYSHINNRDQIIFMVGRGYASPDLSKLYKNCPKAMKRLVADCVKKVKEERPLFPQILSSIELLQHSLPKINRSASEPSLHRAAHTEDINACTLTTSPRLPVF

| IC50 [1] [µM] | IC50 [µM] | Compound |
| --- | --- | --- |
| ≤ 0.01 | – | CNc1ncc2cc(-c3cc(NC(=O)N4CCC(C(F)(F)F)C4)ccc3C)cnc2n1 (stereo in doubt) [Example 54, (3R)—N-[4-methyl-3-[2-(methylamino)pyrido[2,3-d]pyrimidin-6-yl]phenyl]3(trifluoromethyl)pyrrolidine-1-carboxamide] |
| – | ≤ 0.01 | CNc1ncc2cc(-c3cc(NC(=O)N4CCC(C(F)(F)F)C4)ccc3C)cnc2n1 (stereo in doubt) [Example 55, (3S)—N-[4-methyl-3-[2-(methylamino)pyrido[2,3-d]pyrimidin-6-yl]phenyl]-3-(trifluoromethyl)pyrrolidine-1-carboxamide] |
| ≤ 0.01 | – | CNc1ncc2cc(-c3cc(NC(=O)N4CC[C@@H](C(F)(F)F)C4)c(F)cc3C)c(C)nc2n1 [Example 2, (R)-N-(2-fluoro-4-methyl-5-(7-methyl-2-(methylamino)pyrido[2,3-d]pyrimidin-6-yl)phenyl)-3-(trifluoromethyl)pyrrolidine-1-carboxamide] |
| ≤ 0.01 | – | CNc1ncc2cc(-c3cc(NC(=O)N4CC=C(C(F)(F)F)C4)c(F)cc3C)c(C)nc2n1 [Example 3, N-(2-fluoro-4-methyl-5-(7-methyl-2-(methylamino)pyrido[2,3-d]pyrimidin-6-yl)phenyl)-3-(trifluoromethyl)-2,5-dihydro-1H-pyrrole-1-carboxamide] |
| – | 0.01 to 0.1 | CNc1ncc2cc(-c3cc(NC(=O)N4CC[C@@H](SC(F)(F)F)C4)ccc3C)c(C)nc2n1 [Example 4] |
| – | 0.01 to 0.1 | CNc1ncc2cc(-c3cc(NC(=O)N4CC[C@H](SC(F)(F)F)C4)ccc3C)c(C)nc2n1 [Example 5] |
| – | ≤ 0.01 | CNc1ncc2cc(-c3cc(NC(=O)c4ccnc(C(F)(F)F)c4)ccc3C)c(C)nc2n1 [Example 6, N-[4-methyl-3-[7-methyl-2-(methylamino)pyrido[2,3-d]pyrimidin-6-yl]phenyl]-2-(trifluoromethyl)pyridine-4-carboxamide] |
| ≤ 0.01 | – | CNc1ncc2cc(-c3cc(NC(=O)N4CCO[C@@H](C(F)(F)F)C4)ccc3C)c(C)nc2n1 [Example 12, (2R)-N-[4-methyl-3-[7-methyl-2-(methylamino)pyrido[2,3-d]pyrimidin-6-yl]phenyl]-2-(trifluoromethyl)morpholine-4-carboxamide] |
| ≤ 0.01 | – | CNc1ncc2cc(-c3cc(NC(=O)N4CCO[C@H](C(F)(F)F)C4)ccc3C)c(C)nc2n1 [Example 13] |
| ≤ 0.01 | – | CNc1ncc2cc(-c3cc(NC(=O)N4CCC(C(F)(F)F)C4)ccc3C)c(C)nc2n1 (centres unmarked) [Example 14, N-(4-methyl-3-(7-methyl-2-(methylamino)pyrido[2,3-d]pyrimidin-6-yl)phenyl)-3-(trifluoromethyl)pyrrolidine-1-carboxamide] |
| ≤ 0.01 | – | CNc1ncc2cc(-c3cc(NC(=O)N4CC=C(C(F)(F)F)C4)ccc3C)c(C)nc2n1 [Example 16, N-(4-methyl-3-(7-methyl-2-(methylamino)pyrido[2,3-d]pyrimidin-6-yl)phenyl)-3-(trifluoromethyl)-2,5-dihydro-1H-pyrrole-1-carboxamide] |
| ≤ 0.01 | – | CNc1ncc2cc(-c3cc(NC(=O)N4CC[C@H](CC(F)(F)F)C4)ccc3C)c(C)nc2n1 [Example 19, (R)-N-(4-methyl-3-(7-methyl-2-(methylamino)pyrido[2,3-d]pyrimidin-6-yl)phenyl)-3-(2,2,2-trifluoroethyl)pyrrolidine-1-carboxamide] |
| ≤ 0.01 | – | CNc1ncc2cc(-c3cc(NC(=O)N4CC[C@@H](CC(F)(F)F)C4)ccc3C)c(C)nc2n1 [Example 20, (S)-N-(4-methyl-3-(7-methyl-2-(methylamino)pyrido[2,3-d]pyrimidin-6-yl)phenyl)-3-(2,2,2-trifluoroethyl)pyrrolidine-1-carboxamide] |
| ≤ 0.01 | – | CNc1ncc2cc(-c3cc(NC(=O)N4CCn5cnc(C(F)(F)F)c5C4)ccc3C)c(C)nc2n1 [Example 24, N-(4-methyl-3-(7-methyl-2-(methylamino)pyrido[2,3-d]pyrimidin-6-yl)phenyl)-1-(trifluoromethyl)-5,6-dihydroimidazo[l,5-a]pyrazine-7(8H)-carboxamide] |
| ≤ 0.01 | – | CNc1ncc2cc(-c3cc(NC(=O)c4cc(C(F)(F)F)ccn4)ccc3C)c(C)nc2n1 [Example 27] |
| ≤ 0.01 | – | CNc1ncc2cc(-c3cc(NC(=O)c4cccc(C(F)(F)F)c4)ccc3C)c(C)nc2n1 [Example 29, N-(4-methyl-3-(7-methyl-2-(methylamino)pyrido[2,3-d]pyrimidin-6-yl)phenyl)-3-(trifluoromethyl)benzamide] |

The next lines start with the molecule.

| Compound | IC50 [1] [µM] | IC50 [µM] |
| --- | --- | --- |
| CNc1ncc2cc(-c3cc(NC(=O)c4ccnc(C(F)(F)F)c4)c(F)cc3C)c(C)nc2n1 [Example 7, N-[2-fluoro-4-methyl-5-[7-methyl-2-(methylamino)pyrido[2,3-d]pyrimidin-6-yl]phenyl]-2-(trifluoromethyl) pyridine-4-carboxamide] | ≤ 0.01 | – |
| CNc1ncc2cc(-c3cc(NC(=O)N4CCO[C@@H](C(F)(F)F)C4)c(F)cc3C)c(C)nc2n1 [Example 10, (2R)-N-[2-fluoro-4-methyl-5-[7-methyl-2-(methylamino)pyrido[2,3-d]pyrimidin-6-yl]phenyl]-2-(trifluoromethyl)morpholine-4-carboxamide] | ≤ 0.01 | – |
| CNc1ncc2cc(-c3cc(NC(=O)N4CCO[C@H](C(F)(F)F)C4)c(F)cc3C)c(C)nc2n1 [Example 11, (2S)-N-[2-fluoro-4-methyl-5-[7-methyl-2-(methylamino)pyrido[2,3-d]pyrimidin-6-yl]phenyl]-2-(trifluoromethyl)morpholine-4-carboxamide] | ≤ 0.01 | – |
| CNc1ncc2cc(-c3cc(NC(=O)N4CCC5(CCC(F)(F)C5)C4)c(F)cc3C)c(C)nc2n1 (centres unmarked) [Example 15, 7,7-difluoro-N-(2-fluoro-4-methyl-5-(7-methyl-2-(methylamino)pyrido[2,3-d]pyrimidin-6-yl)phenyl)-2-azaspiro[4.4]nonane-2-carboxamide] | ≤ 0.01 | – |
| CNc1ncc2cc(-c3cc(NC(=O)N4CC[C@H](CC(F)(F)F)C4)c(F)cc3C)c(C)nc2n1 [Example 17, (R)-N-(2-fluoro-4-methyl-5-(7-methyl-2-(methylamino)pyrido[2,3-d]pyrimidin-6-yl)phenyl)-3-(2,2,2-trifluoroethyl)pyrrolidine-1-carboxamide] | ≤ 0.01 | – |
| CNc1ncc2cc(-c3cc(NC(=O)N4CC[C@@H](CC(F)(F)F)C4)c(F)cc3C)c(C)nc2n1 [Example 18, (S)-N-(2-fluoro-4-methyl-5-(7-methyl-2-(methylamino)pyrido[2,3-d]pyrimidin-6-yl)phenyl)-3-(2,2,2-trifluoroethyl)pyrrolidine-1-carboxamide] | – | ≤ 0.01 |
| CNc1ncc2cc(-c3cc(NC(=O)N4CCC(C(C)(C)C)C4)c(F)cc3C)c(C)nc2n1 (centres unmarked) [Example 21, 3-(tert-butyl)-N-(2-fluoro-4-methyl-5-(7-methyl-2-(methylamino)pyrido[2,3-d]pyrimidin-6-yl)phenyl)pyrrolidine-1-carboxamide] | ≤ 0.01 | – |
| CNc1ncc2cc(-c3cc(NC(=O)N4CCO[C@H](C(C)(C)C)C4)c(F)cc3C)c(C)nc2n1 [Example 22, (R)-2-(tert-butyl)-N-(2-fluoro-4-methyl-5-(7-methyl-2-(methylamino)pyrido[2,3-d]pyrimidin-6-yl)phenyl)morpholine-4-carboxamide] | – | ≤ 0.01 |
| CNc1ncc2cc(-c3cc(NC(=O)N4CCO[C@@H](C(C)(C)C)C4)c(F)cc3C)c(C)nc2n1 [Example 23, (S)-2-(tert-butyl)-N-(2-fluoro-4-methyl-5-(7-methyl-2-(methylamino)pyrido[2,3-d]pyrimidin-6-yl)phenyl)morpholine-4-carboxamide] | – | ≤ 0.01 |
| CNc1ncc2cc(-c3cc(NC(=O)N4CCO[C@H](CC(F)(F)F)C4)c(F)cc3C)c(C)nc2n1 [Example 25, (R)-N-(2-fluoro-4-methyl-5-(7-methyl-2-(methylamino)pyrido[2,3-d]pyrimidin-6-yl)phenyl)-2-(2,2,2-trifluoroethyl)morpholine-4-carboxamide] | – | ≤ 0.01 |
| CNc1ncc2cc(-c3cc(NC(=O)N4CCO[C@@H](CC(F)(F)F)C4)c(F)cc3C)c(C)nc2n1 [Example 26, (S)-N-(2-fluoro-4-methyl-5-(7-methyl-2-(methylamino)pyrido[2,3-d]pyrimidin-6-yl)phenyl)-2-(2,2,2-trifluoroethyl)morpholine-4-carboxamide] | – | ≤ 0.01 |
| CNc1ncc2cc(-c3cc(NC(=O)N4CC[C@H](CC(F)(F)F)C4)c(F)cc3C)cnc2n1 [Example 30, (R)-N-(2-fluoro-4-methyl-5-(2-(methylamino)pyrido[2,3-d]pyrimidin-6-yl)phenyl)-3-(2,2,2-trifluoroethyl)pyrrolidine-1-carboxamide] | ≤ 0.01 | – |
| CNc1ncc2cc(-c3cc(NC(=O)N4CC[C@@H](CC(F)(F)F)C4)c(F)cc3C)cnc2n1 [Example 31, (S)-N-(2-fluoro-4-methyl-5-(2-(methylamino)pyrido[2,3-d]pyrimidin-6-yl)phenyl)-3-(2,2,2-trifluoroethyl)pyrrolidine-1-carboxamide] | ≤ 0.01 | – |
